# Test results reported in the NIST ThermoML archive (doi:10.1021/acs.jced.5b00658).
# Numbers after ± are expanded uncertainties.
# What was measured:
# [1] = for viscosity / mass density: 101.33 kPa; for mass density: Vibrating tube method; for Normal melting temperature: Crystal, DTA; for Glass transition temperature: DSC
# [2] = Molar enthalpy of transition or fusion; conditions: Crystal; DSC
# [3] = 278.15 K, Liquid, Concentric cylinders viscometry
# [4] = 288.15 K, Liquid, Concentric cylinders viscometry
# [5] = 293.15 K, Liquid, Concentric cylinders viscometry
# [6] = 298.15 K, Liquid, Concentric cylinders viscometry
# [7] = 303.15 K, Liquid, Concentric cylinders viscometry
# [8] = 313.15 K, Liquid, Concentric cylinders viscometry
# [9] = 323.15 K, Liquid, Concentric cylinders viscometry
# [10] = 333.15 K, Liquid, Concentric cylinders viscometry
# [11] = 278.2 K, Liquid, Concentric cylinders viscometry
# [12] = 308.15 K, Liquid, Concentric cylinders viscometry
# [13] = 318.15 K, Liquid, Concentric cylinders viscometry
# [14] = 328.15 K, Liquid, Concentric cylinders viscometry
# [15] = 338.15 K, Liquid, Concentric cylinders viscometry
Structure (SMILES),"mass density ([1]; 283.15 K, Liquid) [kg/m3]","mass density ([1]; 288.15 K, Liquid) [kg/m3]","mass density ([1]; 293.15 K, Liquid) [kg/m3]","mass density ([1]; 298.15 K, Liquid) [kg/m3]","mass density ([1]; 303.15 K, Liquid) [kg/m3]","mass density ([1]; 308.15 K, Liquid) [kg/m3]","mass density ([1]; 313.15 K, Liquid) [kg/m3]",Normal melting temperature [1] [°C],Glass transition temperature [1] [°C],Molar enthalpy of transition or fusion [2] [kcal/mol],"viscosity [1, 3] [mPa·s]","viscosity [1, 4] [mPa·s]","viscosity [1, 5] [mPa·s]","viscosity [1, 6] [mPa·s]","viscosity [1, 7] [mPa·s]","viscosity [1, 8] [mPa·s]","viscosity [1, 9] [mPa·s]","viscosity [1, 10] [mPa·s]",other results
CC(C)Cn1cc[n+](C)c1.O=S(=O)([N-]S(=O)(=O)C(F)(F)F)C(F)(F)F,1450.3 ± 1,1445.6 ± 1,1441.1 ± 1,1436.3 ± 1,1431.6 ± 1,1426.6 ± 1,1421.9 ± 1,-16.2 ± 3.4,-81.2 ± 2.9,1.63 ± 0.382,,,,,,,,,"viscosity ([1]; 278.15 K, Liquid): 244 mPa·s; viscosity ([1]; 288.15 K, Liquid): 132 mPa·s; viscosity ([1]; 293.15 K, Liquid): 103 mPa·s; viscosity ([1]; 298.15 K, Liquid): 79 ± 32 mPa·s; viscosity ([1]; 303.15 K, Liquid): 61 ± 11 mPa·s; viscosity ([1]; 313.15 K, Liquid): 40 ± 8 mPa·s; viscosity ([1]; 323.15 K, Liquid): 28 ± 7 mPa·s; viscosity ([1]; 333.15 K, Liquid): 20 ± 6 mPa·s"
CC(C)CCCCn1cc[n+](C)c1.O=S(=O)([N-]S(=O)(=O)C(F)(F)F)C(F)(F)F,1357.5 ± 1,1353 ± 1,1348.7 ± 1,1344.2 ± 1,1339.8 ± 1,1335.2 ± 1,1330.6 ± 1,11.2 ± 3.4,-81.3 ± 2.9,0.12 ± 0.382,,,,,,,,,"viscosity ([1]; 278.15 K, Metastable liquid, Concentric cylinders viscometry): 306 ± 8 mPa·s; viscosity ([1]; 288.15 K, Concentric cylinders viscometry, Liquid): 164 ± 5 mPa·s; viscosity ([1]; 293.15 K, Concentric cylinders viscometry, Liquid): 124 ± 4 mPa·s; viscosity ([1]; 298.15 K, Concentric cylinders viscometry, Liquid): 96 ± 4 mPa·s; viscosity ([1]; 303.15 K, Concentric cylinders viscometry, Liquid): 76 ± 4 mPa·s; viscosity ([1]; 313.15 K, Concentric cylinders viscometry, Liquid): 50 ± 4 mPa·s; viscosity ([1]; 323.15 K, Concentric cylinders viscometry, Liquid): 35 ± 4 mPa·s; viscosity ([1]; 333.15 K, Concentric cylinders viscometry, Liquid): 25 ± 4 mPa·s"
CC(C)CCn1cc[n+](C)c1.O=S(=O)([N-]S(=O)(=O)C(F)(F)F)C(F)(F)F,1417.5 ± 1,1412.7 ± 1,1408.1 ± 1,1403.3 ± 1,1398.5 ± 1,1393.7 ± 1,1388.7 ± 1,-0.0 ± 3.4,-83.7 ± 2.9,0.0239,195 ± 5,112 ± 4,86 ± 4,69 ± 4,56 ± 4,38 ± 4,27 ± 4,20 ± 4,
CC(C)[n+]1ccn(C)c1.O=S(=O)([N-]S(=O)(=O)C(F)(F)F)C(F)(F)F,1492.2 ± 1,1487.2 ± 1,1482.5 ± 1,1477.6 ± 1,1472.8 ± 1,1467.8 ± 1,1462.6 ± 1,9.0 ± 3.4,-83 ± 2.9,5.71 ± 0.406,122 ± 4,75 ± 4,59 ± 4,48 ± 4,39 ± 4,28 ± 4,21 ± 4,16 ± 4,
CCCCCCCn1cc[n+](C)c1.O=S(=O)([N-]S(=O)(=O)C(F)(F)F)C(F)(F)F,1358.4 ± 1,1354.1 ± 1,1349.8 ± 1,1345.4 ± 1,1341 ± 1,1336.4 ± 1,1331.6 ± 1,-0.9 ± 3.4,-85.4 ± 2.9,0.0956 ± 0.382,,132 ± 4,,82 ± 4,,,,,"viscosity [1, 11]: 234 ± 6 mPa·s; viscosity [1, 12]: 54 ± 4 mPa·s; viscosity [1, 13]: 37 ± 4 mPa·s; viscosity [1, 14]: 27 ± 4 mPa·s; viscosity [1, 15]: 20 ± 4 mPa·s"
CCCC[n+]1ccn(C)c1.O=S(=O)([N-]S(=O)(=O)C(F)(F)F)C(F)(F)F,1451.2 ± 1,1446.5 ± 1,1441.9 ± 1,1436.9 ± 1,1432.1 ± 1,1427.1 ± 1,1422.6 ± 1,-4.6 ± 3,-88.9 ± 2.9,5.76 ± 0.311,,,,,,,,,
CCCCCC[n+]1ccn(C)c1.O=S(=O)([N-]S(=O)(=O)C(F)(F)F)C(F)(F)F,1386.1 ± 1,1381.5 ± 1,1377.2 ± 1,1372.7 ± 1,1368.3 ± 1,1363.6 ± 1,1358.8 ± 1,-11.2 ± 3.4,-85.7 ± 2.9,1.65 ± 1.53,,,,,,,,,
CC(C)CCCn1cc[n+](C)c1.O=S(=O)([N-]S(=O)(=O)C(F)(F)F)C(F)(F)F,1385.9 ± 1,1381.3 ± 1,1377 ± 1,1372.4 ± 1,1367.9 ± 1,1363.3 ± 1,1358.5 ± 1,3.2 ± 3.4,-81 ± 2.9,0.0239,237 ± 6,137 ± 4,107 ± 4,85 ± 4,69 ± 4,45 ± 4,32 ± 4,23 ± 4,
CCCn1cc[n+](C)c1.O=S(=O)([N-]S(=O)(=O)C(F)(F)F)C(F)(F)F,1490.2 ± 1,1485.2 ± 1,1480.6 ± 1,1475.6 ± 1,1470.8 ± 1,1465.8 ± 1,1460.6 ± 1,,,,,64 ± 4,,43 ± 4,,,,,"viscosity [1, 11]: 103 ± 4 mPa·s; viscosity [1, 12]: 30 ± 4 mPa·s; viscosity [1, 13]: 22 ± 4 mPa·s; viscosity [1, 14]: 17 ± 4 mPa·s; viscosity [1, 15]: 13 ± 4 mPa·s"
CCCCCn1cc[n+](C)c1.O=S(=O)([N-]S(=O)(=O)C(F)(F)F)C(F)(F)F,1417.5 ± 1,1412.9 ± 1,1408.4 ± 1,1403.6 ± 1,1399 ± 1,1393.9 ± 1,1389.3 ± 1,,,,,,,,,,,,
